Experiment [1] deals with STAT5b-GyrB fusion proteins. Put plainly: Inhibition assay in BAF cells, all wells with 90 nM coumermycin. The class given is cell-based, murine. Details: unit not given here. To be noted: Table 6. As for the experimental part:
An inhibition assay was also conducted for Compounds 1 and 2. For this assay, all wells contained a DMSO concentration of 90 nM of coumermycin. Compounds 1 and 2 were added at concentrations of 1.8 μM, 900 nM, 90 nM and 9 nM. The conditions of the assay were identical to those referenced early in this example, except that one-third of the amount of 3-H thymidine was used.

In experiment [2] the test system is STAT5b-GyrB fusion proteins.
Description: To evaluate the effectiveness of the analogs of the present invention to act as chemical dimerizers of chimeric proteins, a BAF cell proliferation assay was performed.
BAF Cell Proliferation Assay
We have transfected BAF Cells with the human IL2 Receptor β chain. These transfected cells respond to human IL-2 by increasing their rate of cellular proliferation. This can be assayed by measuring the amount of tritiated thymidine that these cells incorporate into their DNA. One of the signaling proteins activated by IL-2 is the transcription factor STAT5b. This activation of STAT5b is responsible, in part, for the growth-promoting effects of IL-2.
STAT5b is activated by dimerization, an event that is dependent on its phosphorylation and which requires interaction of STAT5b with a ligand bound activated receptor. We can mimic this activation of STAT5b by transfecting BAF cells with a fusion protein consisting of the GyrB domain (the24 kDa amino-terminal fragment of bacterial DNA gyrase, amino acids 2-220) fused to the carboxy-terminus of STAT5b. Addition of the symmetrically dimeric antibiotic coumermycin artificially forces the dimerization of STAT5b-GyrB fusion proteins and results in an increased rate of cell growth that can be measured by the cell's ability to incorporate thymidine. This provides an assay to determine the ability of coumermycin analogs to promote dimerization of STAT5b-GyrB fusion proteins.
The assay is run as follows: BAF cells transfected with the human IL-2 receptor β chain and STAT5b-GyrB are washed twice in phosphate-buffered saline. They are then re-suspended in BAF cell media that lacks IL-2 and placed in a 96-well plate. Increasing amounts of coumermycin, or coumermycin analogs are then added to different wells in a 96-well plate and the cells are incubated overnight. Twenty-four hours later the cell media is spiked with tritiated thymidine and the cells are incubated for an additional 16 hours. The cells are subsequently harvested with a Wallac cell harvester and the amount of tritiated thymidine incorporated is measured using a β scintillation counter.
Set up for BAF proliferation assay was as follows: Spin down cells and wash one time in PBS. Resuspended in BAF cell media without cytokine at 2×10^5 cells/ml. added 100 μl/well or 2×10^4 cells. The compounds were prepared at 2 mg/ml (equivalent to 1.8 nM±5%). Plates were set up so that each condition equaled 1 row of 12 (n=number of wells/row=12). DMSO being utilized as an initial control Compound 5 was prepared in concentrations of 1.6, 16, 163, 450, and 900 nM, and 1.8 μM in DMSO, and as a second control, IL-2 growth factor was added to coumermycin. Two novenamine anologs, Comparative Compounds (CCmpd) 1 and 2, below were also use in this example as control.
The compounds were re-suspended in dimethylsulfoxide (DMSO) at a concentration of 2 mg/ml. […] Next, the cells were washed 2 times with PBS. The re-suspended cells were present at a concentration of 1×10^5 cells /ml in BAF media (RPMI, 10% FCS (fetal calf serum), 1% NEAA (non-essential amino acid), 1% L-G-lu, P/S and Hepes) without IL-2, added 100 μl to well (equal to 1×10^4 cells/well).
The compounds were prepared in as follows: DMSO was used as a control; each of the 5 compounds were combined with DMSO at concentrations of 1.8 μM, 900 nM, 450 nM, 90 nM 9 nM, and 900 nM. As a second control, coumermycin in IL-2 was utilized. Each solution at the aforementioned concentration condition, along with BAF cells, was placed in 1 row (12 wells) of a 96 well plate. Thereafter, 100 μL of compound (twice the concentration) was added to the wells.

The source of these data is US6916846B2, “Coumermycin analogs as chemical dimerizers of chimeric proteins” (Merck & Co. Inc., priority 2000, dated 2005).

SMILES strings stand for the structures. Read-outs that look alike come from different tables or passages of the source.

Turning to `COC1C(OC(=O)c2ccc(C)[nH]2)C(O)C(Oc2ccc3c(O)c(NC(=O)c4ccc(Oc5ccc(C(=O)Nc6c(O)c7ccc(OC8OC(C)(C)C(OC)C(OC(=O)c9ccc(C)[nH]9)C8O)c(C)c7oc6=O)cc5)cc4)c(=O)oc3c2C)OC1(C)C` (stereo not shown) [Cmpd 2], the Prolif. in experiment [1] (Cou. 90 nM plus inhibitor 9 nM) worked out at 7654; in experiment [1] (Cou. 90 nM plus inhibitor 90 nM) it was 7316; in experiment [1] (Cou. 90 nM plus inhibitor 900 nM) it was 8068; in experiment [1] (Cou. 90 nM plus inhibitor 1800 nM), 8165. The “Prolif. (cpm)” value is on record as 6014 cpm in experiment [2] (Table 5, Example 4, 900 pM); 6031 cpm in experiment [2] (Table 5, Example 4, 9 nM); 6623 cpm in experiment [2] (Table 5, Example 4, 90 nM); 7513 cpm in experiment [2] (Table 5, Example 4, 450 nM); 7798 cpm in experiment [2] (Table 5, Example 4, 900 nM); 7825 cpm in experiment [2] (Table 5, Example 4, 1.8 μM). Also, the “Prolif. (cpm)” value came out at 36052 cpm in experiment [2] (Table 7, Example 5, 900 pM); 38236 cpm in experiment [2] (Table 7, Example 5, 9 nM); 42674 cpm in experiment [2] (Table 7, Example 5, 90 nM); 47023 cpm in experiment [2] (Table 7, Example 5, 450 nM); 46989 cpm in experiment [2] (Table 7, Example 5, 900 nM); 46345 cpm in experiment [2] (Table 7, Example 5, 1.8 μM).
